This is an account of results in patent publication US8114641B2, “Methylbutanol as an advanced biofuel” (Synthetic Genomics, Inc., priority 2007, dated 2012).

A short description of data set [1]: Physical properties of alcohol fuels and gasoline. The format is physicochemical.
The conditions of data set [2]: 10% blend in gasoline.
For data set [3] the following is noted: based on literature review; cited from earlier work.
The conditions of data set [4]: 10% blend in gasoline; value based on literature review; cited from earlier work.
Data set [5] can be described thus: Fuel properties of the neat fuel.
Data set [6] can be described thus: Keto acid decarboxylase activity on 2-keto-3-methylvalerate, PDC/KDC-ADH6 coupled assay with crude extracts. The format is biochemical. The following applies: crude extract; for Km: enzyme expressed from p415 TEF in S. cerevisiae PDC1 deletion strain, read-out: Km 2 keto 3 methyl valerate. The procedure:
(§1) The Lactococcus lactis KdcA and S. cerevisiae and P. stipitis PDCs were cloned into yeast expression vector p415 under the control of TEF promoter. The host strain was a PDC1 deletion strain. Crude extracts were prepared for enzymatic assays by incubating cell pellet with CelLytic (Sigma), followed by bead beating. The decarboxylase reaction was performed in 100 mM Citrate Phosphate buffer with 1 mM Thiamine diphosphate, 1 mM MgCl2 and 50 μM to 20 mM aldehyde. The assay was coupled to an alcohol dehydrogenase which enabled continuous monitoring of NADH or NADPH oxidation at 340 nm.
The substrate specificity of the crude extract overexpressing different PDC/Kdcs was tested with a broad range of aldehydes. This included acetaldehyde, butyraldehyde and 2-methylbutyraldehyde. The concentration of the aldehydes was varied from 50 μM to 20 mM to determine the Km and Vmax values.
2-keto-3-methylvalerate (2K3MV) was tested for decarboxylation and subsequent reduction using PDC/KDC-ADH6 coupled assays.

Data set [7] is described as follows: Keto acid decarboxylase activity on 2-keto butyrate, NADH dependent coupled assay with yeast ADH1. The following applies: crude extract. The format is biochemical. Here is the method:
as §1
NADH dependent coupled assays with yeast ADH1 were carried out to determine the decarboxylase activity of yeast and heterologous enzymes on the substrate 2 keto butyrate (2KB). 2KB is an intermediate in the production of 2-methylbutanol. A high decarboxylase activity on 2KB can lead to its conversion to propanal and reduce the yield of 2-MBO. […] (See FIG. 25 a-g.) The enzyme with the lowest Km for 2-ketobutyrate is yeast PDC1 and therefore the corresponding gene needs to be deleted in the 2-MBO production strain (data not shown).

Data set [8] can be described thus: Keto acid decarboxylase activity on pyruvate, crude extracts. Type of data set: biochemical. The following applies: crude extract, S. cerevisiae PDC1 deletion host; sigmoidal curves. Here is the method:
as §1
Pyruvate is the target for multiple enzymes and a decarboxylation of the compound can lead to the production of acetaldehyde and subsequently ethanol. To prevent decarboxylation of pyruvate and increase 2-MBO production, a keto acid decarboxylase with a very high Km for pyruvate is ideal. […] The kinetic curves obtained with pyruvate as substrate were sigmoidal. This could be due to the fact that there are multiple enzymes in the crude extract with different Km for pyruvate. The final curve is therefore the superposition of individual curves. Absolute Km values […]. (FIG. 26.)

Data set [9] in a line: Reductase activity of yeast ADH1 on various aldehydes. The format is biochemical. The procedure: The ideal ADH for 2-MBO production should be able to reduce branched aldehydes. Therefore, the enzymes ADH1, ADH6, and ADH7 were overexpressed in yeast and were tested for their reductase activity on various aldehydes.
Setting [10] is: S. cerevisiae PDC1 deletion host.

Where two headings read alike, the source gives them in different places.

In the case of `CCO` [Ethanol, reference compound], in data set [1], the “Boiling Point, max” value amounted to 79 °C; the “Flash Point, min” value was determined as 13 °C; the “Freezing Point, max” value is −114 °C. The “Energy Content” value in data set [2] is on record as 111,052 BTU/gal. For the same molecule, the “Pump Octane (R + M)/2” value in data set [2] (RBOB with Pump Octane 80.85 and RVP 7.37) is given as 85.9. Moreover, in [3], the “Fuel Solubility in Water” value was 100 wt % and the “Water Solubility in Fuel” value is 100 wt %. Moreover, in [4], the “Reid Vapor Pressure” value is given as ~8.2^A psi. In [5], the “Energy Content” value is 84,519 BTU/gal and the “Reid Vapor Pressure” value was determined as 2.3 psi. Moreover, the “Pump Octane (R + M)/2” value in data set [5] (extrapolated from tests on blended fuels (blending octanes)) is given as 130.9.

B1: L. lactis KDCA: Branched-chain alpha-ketoacid decarboxylase [Lactococcus lactis], SEQ ID NO: 61 (protein, listed as Lactococcus lactis)
chain: MYTVGDYLLDRLHELGIEEIFGVPGDYNLQFLDQIISREDMKWIGNANELNASYMADGYARTKKAAAFLTTFGVGELSAINGLAGSYAENLPVVEIVGSPTSKVQNDGKFVHHTLADGDFKHFMKMHEPVTAARTLLTAENATYEIDRVLSQLLKERKPVYINLPVDVAAAKAEKPALSLEKESSTTNTTEQVILSKIEESLKNAQKPVVIAGHEVISFGLEKTVTQFVSETKLPITTLNFGKSAVDESLPSFLGIYNGKLSEISLKNFVESADFILMLGVKLTDSSTGAFTHHLDENKMISLNIDEGIIFNKVVEDFDFRAVVSSLSELKGIEYEGQYIDKQYEEFIPSSAPLSQDRLWQAVESLTQSNETIVAEQGTSFFGASTIFLKSNSRFIGQPLWGSIGYTFPAALGSQIADKESRHLLFIGDGSLQLTVQELGLSIREKLNPICFIINNDGYTVEREIHGPTQSYNDIPMWNYSKLPETFGATEDRVVSKIVRTENEFVSVMKEAQADVNRMYWIELVLEKEDAPKLLKKMGKLFAEQNK
By Km is commonly meant the concentration of substrate that gives half-maximal velocity. Consider B1, for which the “Vmax 2 keto 3 methyl valerate” value in data set [6] (setting [10]) was determined as 987.3 µM/min/mg. Also, the Km was determined as 3.7 mM in data set [6] (listed as KDCA), 3.75 mM in [6] and 6.05 mM in data set [7] (enzyme expressed from p415 TEF in S. cerevisiae PDC1 deletion strain). The “Vmax 2 keto butyrate” value in data set [7] (setting [10]) amounted to 2053.0 µM/min/mg. Besides, the “Vmax Pyruvate” value in [8] was 10069 µM/min/mg.

B2: ADH1: Saccharomyces cerevisiae alcohol dehydrogenase ADH1, SEQ ID NO: 67 (protein, listed as Saccharomyces cerevisiae)
chain: MSIPETQKGVIFYESHGKLEYKDIPVPKPKANELLINVKYSGVCHTDLHAWHGDWPLPVKLPLVGGHEGAGVVVGMGENVKGWKIGDYAGIKWLNGSCMACEYCELGNESNCPHADLSGYTHDGSFQQYATADAVQAAHIPQGTDLAQVAPILCAGITVYKALKSANLMAGHWVAISGAAGGLGSLAVQYAKAMGYRVLGIDGGEGKEELFRSIGGEVFIDFTKEKDIVGAVLKATDGGAHGVINVSVSEAAIEASTRYVRANGTTVLVGMPAGAKCCSDVFNQVVKSISIVGSYVGNRADTREALDFFARGLVKSPIKVVGLSTLPEIYEKMEKGQIVGRYVVDTSK
For B2, in data set [9], the “fold less active on 2-methyl butaraldehyde than acetaldehyde” value was around 5000 fold.
